The source of these data is US7491383B2, “Compositions having enhanced pharmacokinetic characteristics” (Allergan, Inc., priority 2001, dated 2009).

For data set [1], the system named is Rabbit Intraocular Pressure. The following applies: 20 μL of 0.2% on cornea, mean ± S.E.M., n = 8. The text has this: In this study, the animals were placed into three groups consisting of a mix of age, size and sex.
One group of animals (both sexes) were used per screening study.
The following general procedure for administering the test compound employed in this study is presented below: • 1. Make sure that the 0.25% proparacaine Opthetic® mixture (topical local anesthetic), test compounds, and commercially available treats are available. • 2. Turn on the Digilab Modular One™ Pneuma Tonometer (pneumatonometer) [BioRad, Cambridge, Mass.]; it needs approximately 15 minutes to warm up. Turn on gas supply or air pump. • 3. Hold probe vertically with the point tip down and press “calibration check” for “zero”. • 4. Wipe the pneumatonometer probe with an alcohol swab, and inspect the tip membrane for holes. • 5. Set the external calibration device (air or water manometer) to 25 mm Hg, place the pneumatonometer probe in the calibration device to an ensure that it corresponded to 25±2 mm Hg. • 6. Obtain a rabbit. Make sure the recording data sheets are at hand. • 7. Gently restrain the rabbit via a commercial restrainer or a cotton towel. Measure the pupil diameter with the specialized ruler for each eye and record the values on the sheets provided. If the eyes are too dark to obtain a value by this method, a specialized penlight may be used. Obtain a pupil diameter measurement by shining the penlight on the cornea for one second. • 8. Slide the upper eyelid up the thumb and visually assess and score the degree of ocular surface redness. Record the value for each eye on the sheet provided. • 9. Put one drop of 0.25% proparacaine Opthetic® (50:50 mix of 0.5% proparacaine Opthetic®+Cellufresh®) on the surface of each eye. Wait one or more minutes for ophthetic to take effect. • 10. Place the pnematonometer tip on one eye at the site where the curvature of the cornea is greatest. Let the probe shank travel to the black line, not the red line. Persist until a stable reading with the standard deviation below 1.0 is obtained. Repeat the procedure for the contralateral eye. Record the data. (Note: If the animal is upset by the restraint, the reading will be artificially high and cannot be used. Use gentle restraint). • 11. At the end of the 0, 6, 24, 30, 48, 54, 72, 78 and 96 hour measurements, use an automatic pipette to apply 20 μL of the test compound to the surface of the cornea of one eye. After the 102 hour measurements, the eyes will be washed out with Refresh® and Prefrin®. • 12. Give the animal a treat and return the animal to its cage. • 13. Repeat steps 7 to 11 on the remaining animals in the group.
The following general procedure for measuring the effects of the test compound employed in this study is as follows: a reading is conducted at 0, 2, 4, 6, 24, 26, 28, 30, 48, 50, 52, 54, 72, 74, 76, 78, 96, 98, 100, and 102 hours. The pneumatonometer is calibrated before use with a manometer and the probe tip is wiped with an alcohol swab. One drop of 0.25% proparacaine Opthetic®, a corneal anesthetic, is placed on the cornea. Allow sufficient time (approximately 1 minute) for it to anesthetize the cornea before placing the probe on the eye. The eye is gently opened by the person doing the tonometer reading. The probe is placed on the cornea at the point of greatest curvature and a stable reading is obtained. The probe is held parallel to the floor and perpendicular to the line of the rabbit's sight. The reading is repeated until a reasonable reading can be obtained. The piston should be between the red and black lines or at the black line on the probe.

In another data set the test system is Intra Ocular Pressure. The following applies: 0.131% Brimonidine and 0.126% linoleic acid. The text has this:
The treatment is an ion pair formulation of 0.131% Brimonidine and 0.126% linoleic acid.

The subject of a further data set is monkeys (sedation). On the procedure: This study involved cross overs and a one-week wash out in between the administration of the various compounds.
As done in a previous experiments, the following method was followed: • 1. 6 trained monkeys were placed in chairs and allowed to acclimate for approximately 30 minutes. • 2. Individual monkeys were brought into the “testing room” where they were allowed to adjust to the new environment for approximately 2 minutes. […] Sedation scores were recorded on an observation sheet. • 3. The monkey were returned to the group of animals assigned to this study. • 4. 2 baseline readings were done at T-0.5 and 0 hour. After the 0 hour reading one drop of the test compound was administered to the right eye. • 5. Steps 2 & 3 were repeated at T=0.5, 1, 2, 3 and 4 hour. • 6. Animals were monitored until they recover from effects of the drug. • 7. […] Test Compound Administration:
The scoring was conducted for each animal for the different test compounds. The average results are shown on table 1.

Like-named read-outs stand apart in the source and are kept apart here.

Consider `Brc1c(NC2=NCCN2)ccc2nccnc12.CCCCCC=CCC=CCCCCCCCC(=O)O` [Brimonidine-linoleic acid], for which the “INTRAOCULAR PRESSURE” value in data set [1] (time 0 hr (reading before first dose)) is listed as 25.8 ± 1.2 mm Hg; in data set [1] (time 2 hr), 17.1 ± 1.0 mm Hg; in data set [1] (time 4 hr), 21.1 ± 1.0 mm Hg; in data set [1] (time 6 hr (dosed again after reading)), 23.9 ± 1.0 mm Hg; in data set [1] (time 24 hr (dosed after reading)) it was 25.6 ± 0.5 mm Hg; in data set [1] (time 26 hr), 19.9 ± 0.6 mm Hg. For the same compound, the “INTRAOCULAR PRESSURE” value in data set [1] (time 28 hr) was 22.9 ± 0.8 mm Hg; in data set [1] (time 30 hr (dosed after reading)), 23.0 ± 1.1 mm Hg; in data set [1] (time 48 hr (dosed after reading)), 26.5 ± 1.0 mm Hg; in data set [1] (time 50 hr), 20.4 ± 0.6 mm Hg; in data set [1] (time 52 hr), 23.4 ± 0.7 mm Hg; in data set [1] (time 54 hr (dosed after reading)), 24.1 ± 0.8 mm Hg. For the same compound, the “INTRAOCULAR PRESSURE” value in data set [1] (time 72 hr (dosed after reading)) is listed as 26.8 ± 0.9 mm Hg; in data set [1] (time 74 hr), 21.1 ± 0.8 mm Hg; in data set [1] (time 76 hr), 23.9 ± 1.1 mm Hg; in data set [1] (time 78 hr (dosed after reading)), 25.2 ± 0.9 mm Hg; in data set [1] (time 96 hr (dosed after reading)), 27.9 ± 1.1 mm Hg; in data set [1] (time 98 hr), 20.1 ± 1.3 mm Hg. For the same compound, the results for the “INTRAOCULAR PRESSURE” value in data set [1] (time 100 hr) and in data set [1] (time 102 hr) were 23.9 ± 0.7 mm Hg and 25.3 ± 1.6 mm Hg, respectively. Further, the “percent change with time of Intra Ocular Pressure” value is 0.0 mm Hg with Intra Ocular Pressure (0 hr (administration of complex)); −10.4 mm Hg with Intra Ocular Pressure (1 hr after administration); −16.0 mm Hg with Intra Ocular Pressure (2 hr after administration); −9.5 mm Hg in the data set on Intra Ocular Pressure (4 hr after administration); −9.4 mm Hg in the data set on Intra Ocular Pressure (6 hr after administration).

With “tartrate of 5-bromo-6-(2-imidozolin-2-ylamino) quinoxaline [Brimonidine Tartrate, reference compound]”, the “sedation compared with the other test compounds (in words)” value in the data set on monkeys (sedation) (0.2%, one drop right eye) is recorded as “more sedation than dosing with Brimonidine-linoleic acid”. Moreover, the “SEDATION SCORE (average, scale S=0 to S=4)” value is listed as 0.8 in the data set with monkeys (sedation) (0.2%, one drop right eye, time 0 hr (baseline, before dosing)); 0.8 in the data set with monkeys (sedation) (0.2%, one drop right eye, time 0.5 hr); 1.7 in the data set with monkeys (sedation) (0.2%, one drop right eye, time 1 hr); 2.6 in the data set on monkeys (sedation) (0.2%, one drop right eye, time 2 hr); 2.5 in the data set on monkeys (sedation) (0.2%, one drop right eye, time 3 hr); 2.7 in the data set with monkeys (sedation) (0.2%, one drop right eye, time 4 hr). Moreover, in the data set on monkeys (sedation) (0.2%, one drop right eye, time −0.5 hr (baseline)), the “SEDATION SCORE (average, scale S=0 to S=4)” value was found to be 0.7. Moreover, the “observed state of the monkeys on average” value with monkeys (sedation) (usually from the 2-hour time point to the end of observations) is “sleepy and inactive with heavy eyes”.
